Data: US20060210622A1, “Surface modified particulate compositions of biologically active substances” (Skyepharma Canada Inc., priority 1999, published 2006)
Converted amounts (≈) assume the structure as drawn.

Key:
physchem = type: physicochemical
Method: Solubility of biologically active substances, particularly drug substances in lipophilic and hydrophilic solvents. […] The solvents mentioned in the following table were evaluated. Solubilities, determined by high performance liquid chromatography (HPLC) assay of the dissolved drug in water and several non-aqueous vehicles, are given the following table in units of mg/mL. Low solubility of this drug in either water or organic solvents renders it suitable for formulating as a stable surface modified particulate dispersion in a non-aqueous carrier system.

[1] = Precipitation behavior of benzyl benzoate solution transferred to water, optical microscope under polarized light; type: physicochemical
Description: A portion of the ursodiol solution in benzyl benzoate was transferred to water and shaken. A mixture containing oily droplets resulted. […] This observation makes it possible to further prepare compositions of ursodiol utilizing appropriate solvent system and surface active agents so that micron-sized particle will be generated spontaneously upon addition of these compositions in aqueous media.

Compound: CCC(C)n1ncn(-c2ccc(N3CCN(c4ccc(OCC5COC(Cn6cncn6)(c6ccc(Cl)cc6Cl)O5)cc4)CC3)cc2)c1=O (stereo not shown) [Itraconazole]
- Solubility in pharmaceutically acceptable lipophilic vehicles (physchem): very poorly soluble
- solubility (physchem; water, Solubility of Itraconazole): 10 µg/mL (≈ 14.2 µM)

Compound: C[C@H](CCC(=O)O)[C@H]1CC[C@H]2[C@@H]3[C@@H](O)C[C@@H]4C[C@H](O)CC[C@]4(C)[C@H]3CC[C@]12C [ursodiol]
- Size of crystalline particles observed in the mixture ([1]; benzyl benzoate solution in water, optical microscope, polarized light): below 10 micron
- Precipitation on transfer of solution to water ([1]; benzyl benzoate solution transferred to water and shaken): No precipitation was seen occurring
